Columns and labels:
[1] = Cytotoxicity assay in MT-4 cells; type: cell-based; details: human, uninfected MT-4 cells, Cell Titer Glo
Method in brief: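 Uninfected MT-4 cells were incubated with 1:3 serially diluted compound in RPMI/10% FBS for 5 days at 37° C. Viability was read by CellTiter-Glo luminescence, with 10 μM puromycin as the baseline cytotoxicity control. Values are the concentration giving a 50% decrease in luminescence, from sigmoidal dose-response fits.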

[2] = test system: HIV-1 (IIIB) in MT-4 cells; assay: HIV MT-4 antiviral assay; type: cell-based; details: Human immunodeficiency virus 1, MT4, 120 h, 5 days, Cell Titer Glo
Method in brief: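 MT-4 cells infected with HIV-1 IIIB (1:250 dilution of concentrated stock) were incubated 5 days at 37 °C with compound in 1:3 serial dilutions in RPMI/10% FBS. Viability was read by CellTiter-Glo luminescence. EC50 was the concentration causing a 50% decrease in luminescence signal, from sigmoidal dose-response fits.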

[3] = test system: pLai RLuc reporter virus in MT-4 cells; assay: HIV MT-4 serum shift antiviral reporter assay; type: cell-based; details: Human immunodeficiency virus 1, MT4, 72 h, read-out: RLUC CCM
Method in brief: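 MT-4 cells pre-infected 2 h with reporter virus, then dosed (1:3 dilutions) in medium with 10% FBS alone or plus 50% human serum; 72 h at 37 °C. Renilla luminescence read; EC50 = 50% signal decrease by sigmoidal fit, serum shift = EC50(HS)/EC50(no HS).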

[4] = High throughput microsomal stability assay (human liver microsomes); type: in vitro ADME; details: human liver microsomes, 1 uM compound, NADPH + UDPGA cofactors, 37 C
Method in brief: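 Compounds at 1 uM final, incubated at 37° C. with liver microsomes (2 mg/ml stock, alamethicin-treated) in pH 7.4 phosphate plus NADPH-regenerating/UDPGA cofactors; samples taken 0–70 min. Parent/IS peak-area ratios read by RapidFire QToF MS; half-life from linear fit of initial log decay, scaled to intrinsic clearance.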

Structure (SMILES) | CC50 at 5 days [1] [nM] | EC50 [2] [nM] | EC50 [3] [nM] | HLM stability [4] [L/h/kg]
CC[C@]1(O)CC[C@H](C)N2C[C@H]1n1cc(C(=O)NCc3c(F)cc(F)cc3F)c(=O)c(O)c1C2=O [Example 28, (3S,6S,7R)-6-ethyl-6,12-dihydroxy-3-methyl-1,11-dioxo-N-(2,4,6-trifluorobenzyl)-1,4,5,6,7,11-hexahydro-3H-2,7-methanopyrido[1,2-a][1,4]diazonine-10-carboxamide] | 24400 | 4.1 | 0.96 | 0.34
[2H]C([2H])([2H])[C@]1(O)C=C[C@H](C)N2C[C@H]1n1cc(C(=O)NCc3c(F)cc(F)cc3F)c(=O)c(O)c1C2=O [Example 29, (1R,10S,13S)-6,13-dihydroxy-10-methyl-5,8-dioxo-13-(trideuteriomethyl)-N-[(2,4,6-trifluorophenyl)methyl]-2,9-diazatricyclo[7.4.1.02,7]tetradeca-3,6,11-triene-4-carboxamide] | 13000 | 2 | 0.74 | 0.11
[2H]C([2H])([2H])[C@]1(O)CC[C@H](C)N2C[C@H]1n1cc(C(=O)NCc3ccc(F)cc3F)c(=O)c(O)c1C2=O [Example 31, (1R,10S,13S)—N-[(2,4-difluorophenyl)methyl]-6,13-dihydroxy-10-methyl-5,8-dioxo-13-(trideuteriomethyl)-2,9-diazatricyclo[7.4.1.02,7]tetradeca-3,6-diene-4-carboxamide] | 8230 | 2.1 | 0.36 | 0.18
C[C@H]1CC[C@@](C)(O)[C@H]2CN1C(=O)c1c(O)c(=O)c(C(=O)NCc3ccc(F)cc3F)cn12 [Example 33, (1R,10S,13R)—N-[(2,4-difluorophenyl)methyl]-6,13-dihydroxy-10,13-dimethyl-5,8-dioxo-2,9-diazatricyclo[7.4.1.02,7]tetradeca-3,6-diene-4-carboxamide] | 22800 | 2.1 | 0.36 | 0.35
[2H]C([2H])([2H])O[C@H]1CC[C@H](C)N2C[C@H]1n1cc(C(=O)NCc3ccc(F)cc3F)c(=O)c(O)c1C2=O [Example 34, (3S,6S,7R)—N-(2,4-difluorobenzyl)-12-hydroxy-6-(methoxy-d3)-3-methyl-1,11-dioxo-1,4,5,6,7,11-hexahydro-3H-2,7-methanopyrido[1,2-a][1,4]diazonine-10-carboxamide] | 15100 | 0.9 | 0.42 | 0.25
CO[C@@H]1C[C@H](F)[C@H](C)N2C[C@H]1n1cc(C(=O)NCc3c(F)cc(F)cc3F)c(=O)c(O)c1C2=O [Example 37, (3S,4S,6R,7R)-4-fluoro-12-hydroxy-6-methoxy-3-methyl-1,11-dioxo-N-(2,4,6-trifluorobenzyl)-1,4,5,6,7,11-hexahydro-3H-2,7-methanopyrido[1,2-a][1,4]diazonine-10-carboxamide] | 14800 | 1.4 | 0.65 | 0.17
CO[C@H]1C[C@@H](F)[C@H](C)N2C[C@H]1n1cc(C(=O)NCc3c(F)cc(F)cc3F)c(=O)c(O)c1C2=O [Example 39, (3S,4R,6S,7R)-4-fluoro-12-hydroxy-6-methoxy-3-methyl-1,11-dioxo-N-(2,4,6-trifluorobenzyl)-1,4,5,6,7,11-hexahydro-3H-2,7-methanopyrido[1,2-a][1,4]diazonine-10-carboxamide] | 11700 | 1.5 | 1.5 | 0.28
CO[C@H]1C[C@H](F)[C@H](C)N2C[C@H]1n1cc(C(=O)NCc3c(F)cc(F)cc3F)c(=O)c(O)c1C2=O [Example 40, (3S,4S,6S,7R)-4-fluoro-12-hydroxy-6-methoxy-3-methyl-1,11-dioxo-N-(2,4,6-trifluorobenzyl)-1,4,5,6,7,11-hexahydro-3H-2,7-methanopyrido[1,2-a][1,4]diazonine-10-carboxamide] | 19600 | 1.1 | 2.87 | 0.28
CO[C@H]1CC[C@H](CF)N2C[C@H]1n1cc(C(=O)NCc3ccc(F)cc3F)c(=O)c(O)c1C2=O [Example 41, (3R,6S,7R)—N-(2,4-difluorobenzyl)-3-(fluoromethyl)-12-hydroxy-6-methoxy-1,11-dioxo-1,4,5,6,7,11-hexahydro-3H-2,7-methanopyrido[1,2-a][1,4]diazonine-10-carboxamide] | 19400 | 1.7 | 0.56 | 0.11
CO[C@H]1CC[C@@H](C)N2C[C@H]1n1cc(C(=O)NCc3ccc(F)cc3F)c(=O)c(O)c1C2=O [Example 42, (3R,6S,7R)—N-(2,4-difluorobenzyl)-12-hydroxy-6-methoxy-3-methyl-1,11-dioxo-1,4,5,6,7,11-hexahydro-3H-2,7-methanopyrido[1,2-a][1,4]diazonine-10-carboxamide] | 50000 | 1.9 | 0.61 | 0.58
C[C@H]1CC[C@H](O)[C@@]2(C)CN1C(=O)c1c(O)c(=O)c(C(=O)NCc3ccc(F)cc3F)cn12 [Example 43, (3S,6S,7R)—N-(2,4-difluorobenzyl)-6,12-dihydroxy-3,7-dimethyl-1,11-dioxo-1,4,5,6,7,11-hexahydro-3H-2,7-methanopyrido[1,2-a][1,4]diazonine-10-carboxamide] | 23600 | 1.3 | 0.71 | 0.29
C[C@H]1CC[C@@](O)(CF)[C@H]2CN1C(=O)c1c(O)c(=O)c(C(=O)NCc3c(F)cc(F)cc3F)cn12 [Example 44, (3S,6S,7R)-6-(fluoromethyl)-6,12-dihydroxy-3-methyl-1,11-dioxo-N-(2,4,6-trifluorobenzyl)-1,4,5,6,7,11-hexahydro-3H-2,7-methanopyrido[1,2-a][1,4]diazonine-10-carboxamide] | 44700 | 4 | 1.9 | 0.22
C[C@H]1[C@H]2CO[C@H](C2)[C@H]2CN1C(=O)c1c(O)c(=O)c(C(=O)NCc3ccc(F)cc3F)cn12 [Example 45, (3S,4S,7R,8R)—N-(2,4-difluorobenzyl)-13-hydroxy-3-methyl-1,12-dioxo-1,4,5,7,8,12-hexahydro-3H-2,8:4,7-dimethanopyrido[1,2-d][1,4,7]oxadiazecine-11-carboxamide] | 12400 | 1.9 | 0.46 | 0.17
